Test results as given in patent US10357533B2, “Drug for the effective control of acute and or chronic pain and a method for its administration” (PVP LABS PTE. LTD., priority 2016, dated 2019).
Like-named read-outs stand apart in the source and are kept apart here. [ ]: non-standard residue; d: D form. Sar = CNCC(=O)O

What was measured:
mice [1] = assay: Acetic acid-induced writhing test in mice; format: in vivo; conditions: for Number of writhings, n (Mean ± SEM): 15 minutes count
Protocol: The acetic acid-induced writhing test is a model of a chemical nociceptive stimulus applied by the intraperitoneal injection of acetic acid solution.
Intraperitoneal injection of substances that irritate serous membranes in mice induces distinctive movements, including contractions of abdominal muscles followed by muscle relaxation, extension of the hind limbs and curving of the back, known as writhing. Mice were given an intraperitoneal injection of 1% acetic acid at a dose of 0.1 mL per 10 g body weight. After the injection the mice were placed in transparent acrylic chambers and counted the number of writhings in each animal for the next 15 minutes. The analgesic effect was evaluated by a reduction in the number of writhings in mice that received the study drug relative to the control group. […] Writhing onset latency in mice was used as an additional parameter for evaluating the efficacy of the substance in the acetic acid-induced writhing test.

rats = assay: Hot plate test in rats; format: in vivo; conditions: for HPL, s (Mean ± SEM): hot plate 52° C.
Protocol: The “Hot Plate” test is based on the reflex that rat licking its' feet when the animal comes in contact with a hot surface. The device is a metal surface with a diameter of 30 cm whose temperature is controlled by software. The site is enclosed by a transparent fence with a height of 40 cm. The temperature of the metal pad was set at exactly 52° C. When placing the animal on the surface, you measure the time until the moment when the animal licks its' foot. When analgesics are administered, the time before the rat licks its' feet increases. The licking latency (HPL) of 40 seconds was used as the maximum allowable time of stimulation. The study was conducted on male rats weighing 160-180 g, 6 animals per dose.

mice [2] = assay: Open field test and toxicity of high doses in mice; format: in vivo; conditions: open field, 20 EC50 doses (120 mg/kg)
Protocol: Testing of the influence of the injectable substance based on tetrapeptide (as in example 2) H-Tyr-D-Arg-Phe-Gly-NH2 on the behavior of animals, was provided in the study of the toxicity of high doses of the “open field” test and maintaining balance on a horizontal rod.
The aim of the experiment was to identify an effective dose of the substance that affects the behavior of the animals. It was tested on several animals after administration of different doses of peptide compound.
The experimental and control groups of male mice were taken from the same batch, about the same weight (22-24 g).
The substance was injected intraperitoneally in identical weight amounts to laboratory animals in the experimental and control groups, respectively. […] The measurement was started 15 minutes after injection.
Several groups were organized: without the introduction of the substance, and with the introduction of a solution of morphine or peptide. After 15 from injection we conducted measurement in the following order:
Each animal tested was introduced into a round, not brightly lit arena. The surface is divided into square blocks of 10 cm each. We count locomotor activity of the mouse when it crossed the square. The movement of the mouse in the center of the arena and on the periphery, are recorded separately. We registered the number of times the mouse stands on its hind legs “stand” and the number of times the mouse looks into a “burrow”—ie. holes in the floor. Observations were done visually and were simultaneously entered into a computer using a keyboard (semi-automatic registration).

mice [3] = conditions: published data, cited from earlier work
mice [4] = conditions: subcutaneously to mice, acute pain, ringer solution; application JPS6054400; cited from earlier work
[5] = target: opioid μ-receptors located on GPI (Cavia porcellus, UniProt A0ACM8Q262); assay: Inhibition of electrically stimulated contractions of isolated guinea pig ileum (GPI); format: cell-based; parameters: amplitude: unit not given here
Sequence of opioid μ-receptors located on GPI (A0ACM8Q262 1-400): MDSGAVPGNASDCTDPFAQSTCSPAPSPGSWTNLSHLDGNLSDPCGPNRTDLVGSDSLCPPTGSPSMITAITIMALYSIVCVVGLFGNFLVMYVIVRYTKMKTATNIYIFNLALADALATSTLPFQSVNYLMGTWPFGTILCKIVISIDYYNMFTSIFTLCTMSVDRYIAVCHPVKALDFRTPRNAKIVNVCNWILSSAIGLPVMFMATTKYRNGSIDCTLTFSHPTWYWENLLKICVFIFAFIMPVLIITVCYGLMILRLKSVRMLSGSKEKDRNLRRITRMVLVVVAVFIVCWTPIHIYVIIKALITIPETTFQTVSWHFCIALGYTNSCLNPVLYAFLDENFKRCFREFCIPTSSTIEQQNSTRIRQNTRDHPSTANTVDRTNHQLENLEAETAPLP
Protocol: Effect was assessed by ability to inhibit the contraction caused by electrical stimulation of isolated organs—guinea pig ileum (GPI). Work was carried out on a special apparatus for testing substances for opioid activity on the model of guinea pig ileum. GPI, taken from nonlinear animals were placed in a 10 ml volumetric flask with electrodes inserted containing Krebs solution at 34° C. in a water bath (HOECHST Organbad, Germany) with a thermostat for maintaining a constant temperature in the working cell. The lower end of the GPI is fixed to the vessel at the bottom. The upper end of the ligature was attached to the sensor strength registration device (sensors isometric registration K-30, “Hugo Sachs Elektronik KG”, Germany). The initial tension of the organs was 1 gram. The solution with placed in GPI was being constantly aerated. GPI segments were equilibrated in the Krebs solution for one hour.
GPI contractions were stimulated by plate electrodes with electrical impulses in a series of four rectangular pulses each lasting 0.5 ms and with 1.5 ms intervals, with delays at 7.5 sec. between the series and voltage 80V using a generator of electric impulses (type 215/I, Hugo Sachs Elektronik, Germany). Registration was performed in isometric contraction mode using K30 sensors via two channel amplifiers MS 6601 (“Watanabe”, Japan).
At the beginning stimulation was applied for a minimum of 45 minutes, which allowed reproducible responses to be established.
The tested substance was administered in a solution bathing the organs in a volume of 0.005 to 0.015 ml, to final concentrations of 1×10^−9-1×10^−6 M. Each subsequent introduction of the substance was done 1 minute after the previous dose without washing the organs, on a cumulative basis. […] Active substances were expressed on an indicator pD2 (numerically equal to the negative decimal logarithm of the concentration of a substance that causes 50% of the maximum effect). In other words, the potency of the opioid receptor agonists in the absence and presence of the antagonist was assessed as the negative logarithm of the concentration required to cause 50% of the maximum response (pD2) using the logistic equation described by DeLean A. et al.
During the experiment, the change in GPI amplitude contractions was taken into account and was fixed. Parallel monitoring in 4 chambers with GPI segments for each substance was used.

Compound	amplitude ([5]; concentration 1.0E−09 M)	inhibit. effect ([5]; concentration 1.0E−09 M) [%]	amplitude ([5]; concentration 1.4E−06 M)	inhibit. effect ([5]; concentration 1.4E−06 M) [%]	amplitude ([5]; concentration 1.4E−07 M)	inhibit. effect ([5]; concentration 1.4E−07 M) [%]	amplitude ([5]; concentration 1.4E−08 M)	inhibit. effect ([5]; concentration 1.4E−08 M) [%]	amplitude ([5]; concentration 4.0E−09 M)	inhibit. effect ([5]; concentration 4.0E−09 M) [%]	amplitude ([5]; concentration 4.4E−07 M)	inhibit. effect ([5]; concentration 4.4E−07 M) [%]	amplitude ([5]; concentration 4.4E−08 M)	inhibit. effect ([5]; concentration 4.4E−08 M) [%]	further results
CN1CC[C@]23c4c5ccc(O)c4O[C@H]2[C@@H](O)C=C[C@H]3[C@H]1C5 [Morphine, reference compound]															% of mice w/o writhing (mice [1]; 1 mg/kg subcutaneous): 14.3%; Number of mice w/o writhing/number of mice in group (mice [1]; 1 mg/kg subcutaneous): 1/7; Writhing onset latency, s (Mean ± SEM) (mice [1]; 1 mg/kg subcutaneous): 467.1 ± 74.41 s; Number of writhings, n (Mean ± SEM) (mice [1]; 1 mg/kg subcutaneous 40 minutes before acetic acid): 12.4 ± 3.73 n; % of mice w/o writhing (mice [1]; 3 mg/kg subcutaneous): 37.5%; Number of mice w/o writhing/number of mice in group (mice [1]; 3 mg/kg subcutaneous): 3/8; Writhing onset latency, s (Mean ± SEM) (mice [1]; 3 mg/kg subcutaneous): 695.0 ± 85.00 s; Number of writhings, n (Mean ± SEM) (mice [1]; 3 mg/kg subcutaneous 40 minutes before acetic acid): 2.1 ± 0.83 n; Proportion of the maximum possible effect (MPE), % (rats; 5 mg/kg subcutaneous): 68.6%; HPL, s (Mean ± SEM) (rats; 5 mg/kg subcutaneous): 27.45 ± 4.4 s; Proportion of the maximum possible effect (MPE), % (rats; 15 mg/kg subcutaneous): 95.7%; HPL, s (Mean ± SEM) (rats; 15 mg/kg subcutaneous): 38.31 ± 2.63 s; physical activity reduced (mice [2]): 50-70%; antinociceptive activity, % of MPE (mice [3]; dosage 7 mg/kg): 50%; antinociceptive activity, % of MPE (mice [3]; dosage 10 mg/kg): 75%; antinociceptive activity, % of MPE (mice [3]; dosage 20 mg/kg): 95%
H-Y[dR]FG-NH2 [TP1]	38.7	0.0	9.3	76.6	23.0	41.1	36.0	7.0	38.7	0.0	15.7	61.1	30.3	22.9	analgesic action, times the activity of morphine (mice [4]): more than 6 times
H-Y[dR]F[Sar]-OH [TP2]	38.2	0.0	8.6	77.5	22.0	42.4	35.3	7.6	38.2	0.0	15.2	60.2	29.7	22.2	
